Values after ≈ are worked out from the molar mass of the structure shown. Where a SMILES comes first, the peptide text is derived from it. The star is where a group is joined. Benzoyl(4-B(OH)2) = O=C(c1ccc(B(O)O)cc1)*
What was measured:
Assay type in all cases: functional
Candida albicans [1] = test: Antifungal activity against Candida albicans measured on day 4 by broth microdilution method; details: 96 h
Aspergillus niger = test: Antifungal activity against Aspergillus niger measured on day 4 by broth microdilution method; details: 96 h
Escherichia coli = test: Antimicrobial activity against Escherichia coli C ATCC 13706 measured on day 4 by broth microdilution method; details: C ATCC 13706, 96 h
Staphylococcus aureus = test: Antimicrobial activity against Staphylococcus aureus ATCC 6538 measured on day 4 by broth microdilution method; details: ATCC 6538, 96 h
[2] = test system: Mycolicibacterium smegmatis; test: Antimicrobial activity against Mycobacterium smegmatis ATCC 607 measured on day 4 by broth microdilution method; details: ATCC 607, 96 h
Candida albicans [3] = test: Antibiofilm activity against Candida albicans VT1406 after 24 hrs by XXT/PMS dye based assay; details: VT1406, 24 h
Candida albicans [4] = test: Antifungal activity against Candida albicans VT1406 in cell suspension after 24 hrs by XXT/PMS dye based assay; details: VT1406, 24 h

Compound | MIC (Candida albicans [1]) [µg/mL] | MIC (Aspergillus niger) [µg/mL] | MIC (Escherichia coli) [µg/mL] | MIC (Staphylococcus aureus) [µg/mL] | MIC [2] [µg/mL] | MIC (Candida albicans [3]) [µg/mL] | MIC (Candida albicans [4]) [µg/mL]
CC(C)C[C@H](NC(=O)[C@H](CCCCN)NC(=O)[C@H](CCCCN)NC(=O)[C@H](CCCCN)NC(=O)[C@H](CCCCN)NC(=O)[C@H](CCCCN)NC(=O)[C@@H](N)CCCCN)C(=O)N[C@@H](CCCCNC(=O)c1ccc(B(O)O)cc1)C(=O)N[C@@H](CCCCNC(=O)c1ccc(B(O)O)cc1)C(=O)N[C@@H](Cc1ccc(O)cc1)C(=O)O (H-KKKKKKLK(Benzoyl(4-B(OH)2))K(Benzoyl(4-B(OH)2))Y-OH) | 4 (≈ 2.48 µM) | 62.5 (≈ 38.7 µM) | 8 (≈ 4.95 µM) | 32 (≈ 19.8 µM) | 32 (≈ 19.8 µM) |  | 
CC(C)C[C@H](NC(=O)[C@H](CCCCNC(=O)c1ccc(B(O)O)cc1)NC(=O)[C@H](CC(C)C)NC(=O)[C@H](CCCCN)NC(=O)[C@H](CCCCN)NC(=O)[C@H](CCCCN)NC(=O)[C@H](CCCCN)NC(=O)[C@H](CCCCN)NC(=O)[C@@H](N)CCCCN)C(=O)N[C@@H](Cc1ccc(O)cc1)C(=O)O (H-KKKKKKLK(Benzoyl(4-B(OH)2))LY-OH) | 4 (≈ 2.75 µM) | 62.5 (≈ 43 µM) | 16 (≈ 11 µM) | 32 (≈ 22 µM) | 32 (≈ 22 µM) |  | 
CC(C)C[C@H](NC(=O)[C@H](CCCCN)NC(=O)[C@H](CCCCN)NC(=O)[C@H](CC(C)C)NC(=O)[C@H](CCCCN)NC(=O)[C@@H](N)CCCCN)C(=O)N[C@@H](CCCCN)C(=O)N[C@@H](CCCCNC(=O)c1ccc(B(O)O)cc1)C(=O)N[C@@H](CCCCNC(=O)c1ccc(B(O)O)cc1)C(=O)N[C@@H](Cc1ccc(O)cc1)C(=O)O (H-KKLKKLKK(Benzoyl(4-B(OH)2))K(Benzoyl(4-B(OH)2))Y-OH) | 8 (≈ 5 µM) | 125 (≈ 78.1 µM) | 16 (≈ 10 µM) | 62.5 (≈ 39 µM) | 62.5 (≈ 39 µM) |  | 
CC(C)C[C@H](NC(=O)[C@H](CC(C)C)NC(=O)[C@H](CCCCN)NC(=O)[C@H](CCCCN)NC(=O)[C@H](CC(C)C)NC(=O)[C@H](CCCCN)NC(=O)[C@@H](N)CCCCN)C(=O)N[C@@H](CCCCN)C(=O)N[C@@H](CCCCNC(=O)c1ccc(B(O)O)cc1)C(=O)N[C@@H](Cc1ccc(O)cc1)C(=O)O (H-KKLKKLLKK(Benzoyl(4-B(OH)2))Y-OH) | 4 (≈ 2.78 µM) | 125 (≈ 86.9 µM) | 16 (≈ 11.1 µM) | 62.5 (≈ 43.5 µM) | 32 (≈ 22.3 µM) |  | 
CC(C)C[C@H](NC(=O)[C@H](CCCCN)NC(=O)[C@H](CCCCN)NC(=O)[C@H](CC(C)C)NC(=O)[C@@H](N)CCCCN)C(=O)N[C@@H](CCCCN)C(=O)N[C@@H](CCCCN)C(=O)N[C@@H](CCCCN)C(=O)N[C@@H](CCCCNC(=O)c1ccc(B(O)O)cc1)C(=O)N[C@@H](Cc1ccc(O)cc1)C(=O)O (H-KLKKLKKKK(Benzoyl(4-B(OH)2))Y-OH) | 2 (≈ 1.38 µM) | 125 (≈ 86 µM) | 16 (≈ 11 µM) | 32 (≈ 22 µM) | 32 (≈ 22 µM) |  | 
CC(C)C[C@H](NC(=O)[C@H](CCCCN)NC(=O)[C@H](CC(C)C)NC(=O)[C@H](CCCCN)NC(=O)[C@H](CCCCN)NC(=O)[C@H](CC(C)C)NC(=O)[C@@H](N)CCCCN)C(=O)N[C@@H](CCCCN)C(=O)N[C@@H](CCCCNC(=O)c1ccc(B(O)O)cc1)C(=O)N[C@@H](Cc1ccc(O)cc1)C(=O)O (H-KLKKLKLKK(Benzoyl(4-B(OH)2))Y-OH) | 4 (≈ 2.78 µM) | 125 (≈ 86.9 µM) | 16 (≈ 11.1 µM) | 62.5 (≈ 43.5 µM) | 32 (≈ 22.3 µM) |  | 
CC(C)C[C@H](NC(=O)[C@H](CC(C)C)NC(=O)[C@H](CCCCN)NC(=O)[C@H](CC(C)C)NC(=O)[C@@H](N)CC(C)C)C(=O)N[C@@H](CCCCN)C(=O)N[C@@H](CCCCN)C(=O)N[C@@H](CCCCNC(=O)c1ccc(B(O)O)cc1)C(=O)N[C@@H](CCCCN)C(=O)N[C@@H](Cc1ccc(O)cc1)C(=O)O (H-LLKLLKKK(Benzoyl(4-B(OH)2))KY-OH) | 8 (≈ 5.62 µM) | 250 (≈ 176 µM) | 16 (≈ 11.2 µM) | 62.5 (≈ 43.9 µM) | 125 (≈ 87.9 µM) |  | 
C[C@@H]1[C@H](O)[C@@H](C)/C=C/C=C/C=C/C=C/C=C/C=C/C=C/[C@H](O[C@@H]2O[C@H](C)[C@@H](O)[C@H](N)[C@@H]2O)C[C@@H]2O[C@](O)(C[C@@H](O)C[C@@H](O)[C@H](O)CC[C@@H](O)C[C@@H](O)CC(=O)O[C@H]1C)C[C@H](O)[C@H]2C(=O)O [AMPHOTERICIN B] |  |  |  |  |  | 0.25 (≈ 0.271 µM) | 0.25 (≈ 0.271 µM)
Clc1ccc(COC(Cn2ccnc2)c2ccc(Cl)cc2Cl)c(Cl)c1 (centres undefined) [MICONAZOLE] |  |  |  |  |  | 4 (≈ 9.61 µM) | 1 (≈ 2.4 µM)
